Literature values, collected in US20120115783A1, “PEPTIDOMIMETIC MACROCYCLES” (Alleron therapeutics, Inc, priority 2008, published 2012).

System: HCT116 tumour xenografts

## CN1C(=O)[C@]2(Cc3cn([C@]45C[C@@]67SS[C@@](CO)(C(=O)N6[C@H]4Nc4ccccc45)N(C)C7=O)c4ccccc34)SS[C@@]1(CO)C(=O)N2C [chetomin]
HCT116 tumour xenografts
  growth of HCT116 tumour xenografts: inhibited their growth
Within HCT116 tumour xenografts, pharmacological inhibition of HIF-1α
  hypoxia-inducible transcription within HCT116 tumour xenografts: inhibited hypoxia-inducible transcription
